Measured values published in patent US9662320B2, “Antagonists of the cannabinoid receptor CB1 for use in the treatment of diseases associated with neuronal dendritic abnormalities” (Universitat Pompeu Fabra, priority 2013, dated 2017).

Test system: Fmr1^−/y mice
Assay: Dendritic spine density and morphology analysis in Fmr1−/y mice treated with rimonabant
Format: in vivo
Conditions: 1 mg/kg, i.p., 7 d
Experimental: Fmr1 knockout (KO) mice in FVB background (Fmr1 KO, FVB.129P2-Pde6b^+ Tyr^c-ch Fmr1^tm1Cgr/J) and wild-type mice (WT, FVB.129P2-Pde6b^+ Tyr^c-ch/AntJ) were purchased from The Jackson Laboratory and crossed to obtain Fmr1^−/y and WT littermates. All experimental animals were bred in-house at the Barcelona Biomedical Research Park (PRBB) Animal Facility. Fmr1^−/y and WT mice were used at 12 to 16 weeks of age. Mice were housed four per cage in a temperature (21±1° C.) and humidity (55±10%) controlled environment. Food and water were available ad libitum. All the experiments were performed during the light phase of a 12 h light/dark cycle (lights on at 8 am and off at 8 pm). Animals were handled for one week before starting the experiments. All animal procedures followed the standard ethical guidelines (European Communities Directive […]) and were approved by the local ethical committee (Comitè Èlic d'Experimentació Animal-Parc de Recerca Biomèdica de Barcelona, CEEA-PRBB). The PRBB has also the Animal Welfare Assurance (#A5388-01, IACUC Approval Date Jun. 8, 2009) granted by the Office of Laboratory Animal Welfare (OLAW) of the National Institutes of Health (USA). All behavioral tests were performed by researchers blind to the different experimental groups.
Rimonabant was obtained from Sanofi-Aventis (Sanofi-Aventis Recherche). Rimonabant was injected intraperitoneally (i.p.) in a volume of 10 ml per kg.
Dendritic spine analysis was performed as previously described (Lee K W. et al., Proc Natl Acad Sci USA. 2006; 103(9): 3399-404) in mice that received a chronic administration of rimonabant (1 mg kg^−1, 7 d) or its vehicle. Brains were extracted after perfusion (4% PFA in PB) 3 h after the last administration of rimonabant or vehicle solution on the seventh day of treatment. […]
Results are reported as mean±s.e.m. The experiments were evaluated by one-way analysis of variance (ANOVA) followed by the Dunnett's post-hoc test when required. […]

[1] = compared to vehicle-treated Fmr1^−/y mice

Question: For `Cc1c(C(=O)NN2CCCCC2)nn(-c2ccc(Cl)cc2Cl)c1-c1ccc(Cl)cc1` [rimonabant, 5-(4-Chlorophenyl)-1-(2,4-dichloro-phenyl)-4-methyl-N-(piperidin-1-yl)-1H-pyrazole-3-carboxamide], which “dendritic spine density of CA1 pyramidal neurons” value (CA1 field of the hippocampus) is on record?
Answer: normalized

Question: What about the “mushroom/wide (mature) spines” value [1] of the same molecule?
Answer: increase

Question: What about the “thin/stubby (immature) spines” value [1] of the same molecule?
Answer: decrease
